According to ChEMBL document CHEMBL4840362, “Diterpenoids from the whole plants of Croton yunnanensis and their bioactivities” (Bioorg Med Chem, 2021):
The source made the active and inactive calls. No cut-off for these calls is given here.

Columns and labels:
Type in all cases: functional, cell-based
A549 [1] = assay: Cytotoxicity against human A549 cells assessed as inhibition of cell growth at 40 uM measured after 48 hrs by MTS assay
SW480 = assay: Cytotoxicity against human SW480 cells assessed as inhibition of cell growth at 40 uM measured after 48 hrs by MTS assay
RAW264.7 = assay: Antiinflammatory activity against mouse RAW264.7 cells assessed as inhibition of LPS induced nitric oxide production at 50 uM followed by LPS stimulation incubated for 18 hrs by Griess reagent based assay
SMMC-7721 [2] = assay: Cytotoxicity against human SMMC-7721 cells assessed as inhibition of cell growth at 40 uM measured after 48 hrs by MTS assay
HL-60 [3] = assay: Cytotoxicity against human HL-60 cells assessed as inhibition of cell growth at 40 uM measured after 48 hrs by MTS assay
MCF7 = assay: Cytotoxicity against human MCF7 cells assessed as inhibition of cell growth at 40 uM measured after 48 hrs by MTS assay
HL-60 [4] = assay: Cytotoxicity against human HL-60 cells assessed as inhibition of cell growth measured after 48 hrs by MTS assay; conditions: HL-60, 48 h
SMMC-7721 [5] = assay: Cytotoxicity against human SMMC-7721 cells assessed as inhibition of cell growth measured after 48 hrs by MTS assay; conditions: SMMC-7721, 48 h
A549 [6] = assay: Cytotoxicity against human A549 cells assessed as inhibition of cell growth measured after 48 hrs by MTS assay; conditions: A549, 48 h

| SMILES | Activity (A549 [1]) | Activity (SW480) | Activity (RAW264.7) | Activity (SMMC-7721 [2]) | Activity (HL-60 [3]) | Activity (MCF7) | IC50 (HL-60 [4]) | IC50 (SMMC-7721 [5]) | IC50 (A549 [6]) |
| --- | --- | --- | --- | --- | --- | --- | --- | --- | --- |
| COC(=O)C1=CCC[C@@H]2[C@]13CC[C@H](C)[C@@]21C[C@H](c2ccoc2)O[C@H]1OC3=O | inactive | inactive | inactive | inactive | inactive | inactive | – | – | – |
| COC(=O)C1=CCC[C@@H]2C13CC[C@H](C)[C@@]21C[C@H](c2ccoc2)O[C@H]1O[C@@H]3O | inactive | inactive | inactive | inactive | inactive | inactive | – | – | – |
| CC(=O)O[C@H]1C(=O)[C@@]2(C)[C@H]([C@H](OC(=O)c3ccccc3)[C@]3(O)C[C@H](OC(=O)[C@H](O)[C@@H](NC(=O)c4ccccc4)c4ccccc4)C(C)=C1C3(C)C)[C@]1(OC(C)=O)CO[C@@H]1C[C@@H]2O [PACLITAXEL] | – | – | – | – | – | – | < 0.008 µM | 0.143 µM | < 0.008 µM |
| COC(=O)[C@@H]1C=CC[C@@H]2C13CC[C@@H](C)[C@]21C[C@@H](c2ccoc2)O[C@@H]1O3 | inactive | inactive | inactive | inactive | inactive | inactive | – | – | – |
| COC(=O)C1=CCC[C@H]2C13CC[C@@H](C)[C@]21C[C@@H](c2ccoc2)O[C@@H]1O3 | inactive | inactive | inactive | inactive | inactive | inactive | – | – | – |
| COC(=O)c1cccc2c1CC[C@@H](C)[C@]21C[C@@H](c2ccoc2)OC1=O | inactive | inactive | inactive | inactive | inactive | inactive | – | – | – |
| COC(=O)C1=CCC[C@H]2C1=CC[C@@H](C)[C@]21C[C@@H](c2ccoc2)OC1=O | inactive | inactive | inactive | inactive | inactive | inactive | – | – | – |
| CCCCCCCCCC(=O)O[C@@H]1[C@@H](C)[C@@]2(O)[C@@H](C=C(CO)C[C@]3(O)C(=O)C(C)=C[C@@H]23)[C@@H]2C(C)(C)[C@]12OC(C)=O | inactive | inactive | inactive | inactive | inactive | inactive | – | – | – |
| COC(=O)C12C=CC[C@@H]3[C@@H]1CC[C@H](C)[C@@]31C[C@H](c3ccoc3)O[C@H]1O2 | inactive | inactive | inactive | inactive | inactive | inactive | – | – | – |
| COc1c(C)cc2c(c1O)[C@]1(C)CCC(=O)C(C)(C)C1=C(O)C2=O | – | – | inactive | – | – | – | 14.4 µM | 4.47 µM | 27.4 µM |
